Experimental data reported in PMC13168289, “Potent acridone antimalarial against all three life stages of Plasmodium” (Nature Communications, 2026).
Several values for one entry are separate records, joined by “and”; a condition that tells them apart may be missing. Equal values may be shown once. Read-outs that look alike come from different tables or passages of the source.

How the values were obtained:
[1] = parameters: method as in reviewer #3 remark; conditions: in humans; ref reviewer #3 remark; cited from earlier work
[2] = cited from earlier work
[3] = system: P. falciparum NF54 gametocytes; assay: sexual blood-stage gametocyte assay; format: cell-based, Plasmodium falciparum; conditions: Days 5 to 7, read Day 14
Method: P. falciparum NF54 was used to generate gametocytes. The erythrocytic stage of the parasite was cultured following standard laboratory protocols. Gametocyte production was carried out as described by Miura et al[34]. […] Cultures were maintained in washed human O^+ red blood cells at a final hematocrit of 2%[76]. For gametocyte cultures, parasites were induced using serum-free human media. Gametocyte cultures were maintained in washed human O^+ red blood cells at a final hematocrit of 5%. […] All cultures were maintained at 37 °C in a Billups chamber under a gas mixture of 90% N2, 5% CO2, and 5% O2, with media changes daily. […] DMSO diluted in gametocyte media was used as the control. […] Gametocytemia was assessed on Day 14 post-induction using blood smears stained with the Hema 3^TM Manual Staining System (Fisher) and analyzed by light microscopy.

blood-stage P. yoelii = assay: single-dose cure murine model, oral; format: in vivo, P. yoelii in CF1 mice
From the text: Animals were housed at the VAPORHCS in Thoren Maxi-Miser microisolator cages (78 sq. in. floor space) with a maximum density of five females or four males per cage. Cages were maintained on a 12-h light/dark cycle and provided with autoclaved nesting materials (nestlets) for environmental enrichment. All mice had ad libitum access to food and water. Four- to five-week-old female and male outbred CF1 mice (Charles River Laboratories, Raleigh, NC, USA) were randomly assigned to treatment and control groups using a simple randomization procedure (e.g., computer-generated random numbers) to ensure balanced distribution of baseline body weights and starting parasitemia levels across all cohorts. Groups of four mice (n = 4, mean body weight of each group was ~30 g) were infected intravenously with 3.5 × 10^4 P. yoelii (Kenya strain, MRA-428) from a donor animal. Drug administration commenced the day after the animals were inoculated (Day 1). The test drug or the drug combination was dissolved in PEG-400 and administered by oral gavage once daily for 4 successive days in the 4-day suppression model, but only once on Day 1 in the single-dose cure model. Blood was collected via the tail vein with the aid of a syringe needle on Day 5 and then at weekly intervals through Day 28. Blood films were Giemsa-stained and examined microscopically to determine the level of parasitemia. All mice were observed daily to assess clinical signs. Animals with observable parasitemia following the experiments were euthanized; animals cleared of parasitemia from their bloodstream were observed daily with assessment of parasitemia performed weekly until Day 28, at which point, the animal(s) were scored as cured of the infection and then humanely euthanized. All treated mice with a negative smear on Day 28 were considered cured (100% protection). […]

[4] = system: P. falciparum Dd2, DR1 and DR4; assay: SYBR Green 72 h drug susceptibility assay against ART-resistant clones; format: cell-based, Plasmodium falciparum
Method: Drug susceptibility assay against ART-resistant P. falciparum clones was performed using a SYBR Green-based assay[44],[74]. Synchronized ring stage parasites were cultured for 72 h in the presence of the test drug. The assay was performed in 96-well plates at 2% hematocrit and 0.5% starting parasitemia. Each experiment was conducted in triplicate and repeated with three biological replicates. Parasite growth at 72 h was quantified via SYBR Green I staining. The obtained counts were plotted against the logarithm of the compound concentration, and a curve was fitted with non-linear regression (sigmoidal dose-response/variable slope equation) to determine IC50 (half-maximal inhibitory concentration) values. The data was analyzed using GraphPad Prism software 8.0.

[5] = system: Salmonella typhimurium TA98 and TA100; assay: Ames assay; format: cell-based; conditions: 10 µM; TA98 and TA100, with and without S9 activation
Method: Mutagenicity was assessed using the Ames assay[54] (EBPI, Ontario, Canada) against S. typhimurium TA100 and TA98, with and without S9 activation. The tester strain S. typhimurium (TA100 and TA98) cultures were inoculated from the lyophilized pellets and grown in nutrient broth provided by EBPI. Each inoculated vial (5 mL volume with antibiotics) was placed overnight in the incubator at 37 °C. The positive controls for the assay were 1.0 µg/µL 2-aminoanthracene (2-AA) for incubations with the S9 mix and 5 µg/mL sodium azide (NaN3, used for TA100) and 300 µg/mL 2-nitrofluorene (2NF, used for TA98) for incubations without the S9 mix. […] An aliquot (0.2 mL) of the mixture was then added to each well of a 96-well plate. The 96-well plates were covered, sealed in zip-lock bags, and incubated for 5 days at 37 °C. Plates were scored visually, and the positive wells against background mutations were statistically analyzed.

Structure (SMILES) | T1/2 [1] [h] | T1/2 ([2]; healthy mice, ref PMID: 23292347) | t1/2 ([2]; mice plasma) | inhibition of formation of stage V gametocytes ([3]; 1 µM) [%] | inhibition of formation of stage V gametocytes ([3]; 10 µM) [%] | % survival through Day 28 (blood-stage P. yoelii; TQ 0 + T111 20 mg/kg) [%] | number of mice cured on Day 28 (blood-stage P. yoelii; TQ 0 + T111 20 mg/kg) | parasitemia burden on Day 5 (blood-stage P. yoelii; TQ 0 + T111 20 mg/kg) | % survival through Day 28 (blood-stage P. yoelii; TQ 0 + T111 30 mg/kg) [%] | number of mice cured on Day 28 (blood-stage P. yoelii; TQ 0 + T111 30 mg/kg) | parasitemia burden on Day 5 (blood-stage P. yoelii; TQ 0 + T111 30 mg/kg) | % survival through Day 28 (blood-stage P. yoelii; TQ 0 + T111 40 mg/kg) [%] | parasitemia burden on Day 5 (blood-stage P. yoelii; TQ 0 + T111 40 mg/kg) | number of mice cured on Day 28 (blood-stage P. yoelii; TQ 0 + T111 40 mg/kg, 40 mg/kg) | % survival through Day 28 (blood-stage P. yoelii; TQ 0 + T111 50 mg/kg) [%] | parasitemia burden on Day 5 (blood-stage P. yoelii; TQ 0 + T111 50 mg/kg) | number of mice cured on Day 28 (blood-stage P. yoelii; TQ 0 + T111 50 mg/kg, 50 mg/kg) | IC50 ([4]; DR1 (ART-R)) [nM] | IC50 ([4]; Dd2) [nM] | Ames test result [5]
O=C1C(O)=C([C@H]2CC[C@H](c3ccc(Cl)cc3)CC2)C(=O)c2ccccc21 [ATV, atovaquone] | 120 to 140 | about 13 h | ~ 13 h | – | – | – | – | – | – | – | – | – | – | – | – | – | – | – | – | –
O=c1c2ccc(Oc3ccc(OC(F)(F)F)cc3)cc2[nH]c2cc(Cl)cc(F)c12 [T111] | – | – | – | 75 | 93 | 0 | 0/4 | 0 | 0 | 0/4 | 0 | 25 | 0 | One of four mice and 1/4 | 100 | 0 | all of four mice and single-dose cure in all treated mice and 4/4 | 0.11 | 0.028 | negative
